What was measured:
[1] = Antitumor activity against human U87 cells xenografted in mouse at 20 mg/kg, po after 10 days; assay type: functional, U-87MG ATCC
[2] = target: Serine/threonine-protein kinase mTOR (Homo sapiens, UniProt P42345)
[3] = Antitumor activity against human U87 cells xenografted in mouse at 10 mg/kg, po after 10 days; assay type: functional, U-87MG ATCC
[4] = Antitumor activity against human U87 cells xenografted in mouse at 3 mg/kg, po after 10 days; assay type: functional, U-87MG ATCC

SMILES	Ki [2] [nM]	other results
COc1ccc(-c2nc3c(C)nc(N)nc3n([C@H]3CC[C@H](O)CC3)c2=O)cn1	6.8	Activity [1]: 75%; Activity [3]: 58%; Activity [4]: 11%
Cc1ccc(-c2nc3c(C)nc(N)nc3n(C3CCOCC3)c2=O)cn1	5	–
Cc1ccc(-c2nc3c(C)nc(N)nc3n([C@H]3CC[C@H](O)CC3)c2=O)cn1	0.85	–
COc1ncc(-c2nc3c(C)nc(N)nc3n(C(C)C)c2=O)cn1	18	–

Continued, in another order:

Ki [2] [nM]	SMILES	other results
5	COc1ccc(-c2cc3c(C)nc(N)nc3n(C(C)C)c2=O)cn1	–
> 4000	COc1ccc(-c2cc3c(OC)nc(N)nc3n(C(C)C)c2=O)cn1	–
6	Cc1nc(N)nc2c1nc(-c1ccn[nH]1)c(=O)n2C(C)C	–
113	Cc1nc(N)nc2c1nc(-c1cnn[nH]1)c(=O)n2C(C)C	–
5.11	Cc1ccc(-c2nc3c(C)nc(N)nc3n([C@H]3CC[C@H](OCCO)CC3)c2=O)cn1	–
0.8	Cc1nc(N)nc2c1nc(-c1cc[nH]n1)c(=O)n2C1CCOCC1	–

— ChEMBL document CHEMBL1255178, “4-methylpteridinones as orally active and selective PI3K/mTOR dual inhibitors” (Bioorg Med Chem Lett, 2010)
